For the assay, the system named is odorant receptor OR5. As to the kind of experiment: IR spectroscopy of OR5/tBLM system upon addition of odorant. The class given is binding, rat. As for the experimental part:
The activity of incorporated odorant receptors was measured using IR spectroscopy.

In the case of `CC(C=O)Cc1ccc(C(C)(C)C)cc1` (centres unmarked) [lilial], the “signal change of the IR amide I peak (recognition of the odor by the receptor)” value (1 mM lilial added to tBLM integrated OR5) is “recognition of the odor by the receptor”. In addition, the “reversibility of the lilial/OR5 interaction” value (rinsing with PBS) is listed as “can be reversed by rinsing with PBS”.

For the origin of these results see patent US20090202997A1, “Cell-Free In Vitro Transcription and Translation of Membrane Proteins into Tethered Planar Lipid Layers” (priority 2005, published 2009).
